Test results published in patent US20260285850A1, “SUBSTITUTED OXAZOLIDINONES AND IMIDAZOLINONES AS HERBICIDES” (FMC CORPORATION, priority 2023, published 2026).

Key:
Assay type in all cases: in vivo
[1] = system: barnyardgrass (Echinochloa crus-galli); test: Test A preemergence soil spray, visual injury rating 0-100; settings: 10 days, 0 = no effect, 100 = complete control
Excerpt: (§1) Seeds of plant species selected from barnyardgrass (Echinochloa crus-galli), blackgrass (Alopecurus myosuroides), corn (Zea mays), foxtail, giant (giant foxtail, Setaria faberi), green foxtail (Setaria viridis), goosegrass (Eleusine indica), kochia (Bassia scoparia), oat, wild (wild oat, Avena fatua), palmer (palmer amaranth, palmer pigweed, Amaranthus palmeri), ragweed (common ragweed, Ambrosia artemisiifolia), ryegrass, Italian (italian ryegrass, Lolium multiflorum), soybean (Glycine max) and wheat (Triticum aestivum) were planted into a blend of loam soil and sand and treated preemergence with a directed soil spray using test chemicals formulated in a non-phytotoxic solvent mixture which included a surfactant.
(§2) At the same time, plants selected from these crops and weed species and also galium (catchweed bedstraw, Galium aparine) and horseweed (Erigeron canadensis) were planted in pots containing the same blend of loam soil and sand and treated with postemergence applications of test chemicals formulated in the same manner. Plants ranged in height from 2 to 10 cm and were in the one- to two-leaf stage for the postemergence treatment. Treated plants and untreated controls were maintained in a greenhouse for 10 days, after which time all treated plants were compared to untreated controls and visually evaluated for injury. Plant response ratings, summarized in Table A, are based on a 0 to 100 scale where 0 is no effect and 100 is complete control. A dash (-) response means no test result.

[2] = system: blackgrass (Alopecurus myosuroides); test: as above; settings: 10 days, 0 = no effect, 100 = complete control
Excerpt: as §1, §2

corn (Zea mays) [3] = test: as above; settings: 10 days, 0 = no effect, 100 = complete control
Excerpt: as §1, §2

kochia (Bassia scoparia) [4] = test: as above; settings: 10 days, 0 = no effect, 100 = complete control
Excerpt: as §1, §2

[5] = system: oat, wild (wild oat, Avena fatua); test: as above; settings: 10 days, 0 = no effect, 100 = complete control
Excerpt: as §1, §2

[6] = system: palmer (palmer amaranth, palmer pigweed, Amaranthus palmeri); test: as above; settings: 10 days, 0 = no effect, 100 = complete control
Excerpt: as §1, §2

[7] = system: ragweed (common ragweed, Ambrosia artemisiifolia); test: as above; settings: 10 days, 0 = no effect, 100 = complete control
Excerpt: as §1, §2

[8] = system: ryegrass, Italian (italian ryegrass, Lolium multiflorum); test: as above; settings: 10 days, 0 = no effect, 100 = complete control
Excerpt: as §1, §2

soybean (Glycine max) [9] = test: as above; settings: 10 days, 0 = no effect, 100 = complete control
Excerpt: as §1, §2

[10] = system: wheat (Triticum aestivum); test: as above; settings: 10 days, 0 = no effect, 100 = complete control
Excerpt: as §1, §2

[11] = system: barnyardgrass (Echinochloa crus-galli); test: Test A postemergence application, visual injury rating 0-100; settings: Postemergence
Excerpt: as §1, §2

[12] = system: blackgrass (Alopecurus myosuroides); test: as above; settings: Postemergence
Excerpt: as §1, §2

corn (Zea mays) [13] = test: as above; settings: Postemergence
Excerpt: as §1, §2

[14] = system: galium (catchweed bedstraw, Galium aparine); test: as above; settings: Postemergence
Excerpt: as §1, §2

[15] = system: horseweed (Erigeron canadensis); test: as above; settings: Postemergence
Excerpt: as §1, §2

kochia (Bassia scoparia) [16] = test: as above; settings: Postemergence
Excerpt: as §1, §2

[17] = system: oat, wild (wild oat, Avena fatua); test: as above; settings: Postemergence
Excerpt: as §1, §2

[18] = system: palmer (palmer amaranth, palmer pigweed, Amaranthus palmeri); test: as above; settings: Postemergence
Excerpt: as §1, §2

[19] = system: ragweed (common ragweed, Ambrosia artemisiifolia); test: as above; settings: Postemergence
Excerpt: as §1, §2

[20] = system: ryegrass, Italian (italian ryegrass, Lolium multiflorum); test: as above; settings: Postemergence
Excerpt: as §1, §2

soybean (Glycine max) [21] = test: as above; settings: Postemergence
Excerpt: as §1, §2

[22] = system: wheat (Triticum aestivum); test: as above; settings: Postemergence
Excerpt: as §1, §2

[23] = 31 g ai/ha, greenhouse 10 days, 0 no effect, 100 complete control
[24] = 125 g ai/ha, 10 days, 0 is no effect, 100 is complete control

CCCS(=O)(=O)OC(=O)C1C=CC(NC(=O)C2(C)CN(c3cc(Cl)cc(Cl)c3)C(=O)O2)C1 (mixture of isomers) [Compound 79]
Barnyardgrass plant response rating (0-100) ([1]; 31 g ai/ha): 30
Barnyardgrass plant response rating (0 to 100 scale) ([1]; 125 g ai/ha): 90
Blackgrass plant response rating (0-100) ([2]; 31 g ai/ha): 10
Blackgrass plant response rating (0 to 100 scale) ([2]; 125 g ai/ha): 30
Corn plant response rating (0-100) (corn (Zea mays) [3]; 31 g ai/ha): 0
Corn plant response rating (0 to 100 scale) (corn (Zea mays) [3]; 125 g ai/ha): 30
Kochia plant response rating (0-100) (kochia (Bassia scoparia) [4]; 31 g ai/ha): 30
Kochia plant response rating (0 to 100 scale) (kochia (Bassia scoparia) [4]; 125 g ai/ha): 70
Oat, Wild plant response rating (0-100) ([5]; 31 g ai/ha): 20
Oat, Wild plant response rating (0 to 100 scale) ([5]; 125 g ai/ha): 30
Amaranth, Palmer plant response rating (0-100) ([6]; 31 g ai/ha): 80
Amaranth, Palmer plant response rating (0 to 100 scale) ([6]; 125 g ai/ha): 90
Ragweed plant response rating (0-100) ([7]; 31 g ai/ha): 0
Ragweed plant response rating (0 to 100 scale) ([7]; 125 g ai/ha): 20
Ryegrass, Italian plant response rating (0-100) ([8]; 31 g ai/ha): 20
Ryegrass, Italian plant response rating (0 to 100 scale) ([8]; 125 g ai/ha): 80
Soybean plant response rating (0-100) (soybean (Glycine max) [9]; 31 g ai/ha): 0
Soybean plant response rating (0 to 100 scale) (soybean (Glycine max) [9]; 125 g ai/ha): 70
Wheat plant response rating (0-100) ([10]; 31 g ai/ha): 10
Wheat plant response rating (0 to 100 scale) ([10]; 125 g ai/ha): 80
Barnyardgrass plant response rating (0 to 100 scale) [11, 23]: 90
Barnyardgrass plant response rating (0 to 100 scale) [11, 24]: 90
Blackgrass plant response rating (0 to 100 scale) [12, 23]: 60
Blackgrass plant response rating (0 to 100 scale) [12, 24]: 90
Corn plant response rating (0 to 100 scale) (corn (Zea mays) [13]; [23]): 90
Corn plant response rating (0 to 100 scale) (corn (Zea mays) [13]; [24]): 100
Galium plant response rating (0 to 100 scale) [14, 23]: 80
Galium plant response rating (0 to 100 scale) [14, 24]: 80
Horseweed plant response rating (0 to 100 scale) [15, 23]: 40
Horseweed plant response rating (0 to 100 scale) [15, 24]: 70
Kochia plant response rating (0 to 100 scale) (kochia (Bassia scoparia) [16]; [23]): 70
Kochia plant response rating (0 to 100 scale) (kochia (Bassia scoparia) [16]; [24]): 80
Oat, Wild plant response rating (0 to 100 scale) [17, 23]: 90
Oat, Wild plant response rating (0 to 100 scale) [17, 24]: 90
Amaranth, Palmer / Pigweed, Palmer plant response rating (0 to 100 scale) [18, 23]: 70
Amaranth, Palmer / Pigweed, Palmer plant response rating (0 to 100 scale) [18, 24]: 90
Ragweed plant response rating (0 to 100 scale) [19, 23]: 50
Ragweed plant response rating (0 to 100 scale) [19, 24]: 60
Ryegrass, Italian plant response rating (0 to 100 scale) [20, 23]: 50
Ryegrass, Italian plant response rating (0 to 100 scale) [20, 24]: 60
Soybean plant response rating (0 to 100 scale) (soybean (Glycine max) [21]; [23]): 40
Soybean plant response rating (0 to 100 scale) (soybean (Glycine max) [21]; [24]): 90
Wheat plant response rating (0 to 100 scale) [22, 23]: 80
Wheat plant response rating (0 to 100 scale) [22, 24]: 90
